Measurements: patent publication US20230040770A1, “HETEROCYCLIC COMPOUND AND USE THEREOF” (TAKEDA PHARMACEUTICAL COMPANY LIMITED, priority 2019, published 2023)

Assays:
cynomolgus monkeys = experiment: Evaluation of wake-promoting effects in cynomolgus monkeys (EEG/EMG); format: in vivo, cynomolgus monkey; settings: Macaca fascicularis, time spent in wakefulness for 4 h after administration, read-out: Wakefulness time (% of vehicle treatment) (Mean); for response vs control in vivo at 0.1 mg/kg / response vs control in vivo at 0.3 mg/kg: sc; for response vs control in vivo at 0.1 mg/kg: 0.1 mg/kg s.c. at ZT12; for response vs control in vivo at 0.3 mg/kg: 0.3 mg/kg s.c. at ZT12
Method: The wake-promoting effects were evaluated by measuring the electroencephalogram (EEG) and electromyogram (EMG) in cynomolgus monkeys. Under isoflurane anesthesia (1-5%, Pfizer Japan Inc., Tokyo, Japan), male cynomolgus monkeys (3-5 years old, Hamri Co., Ltd., Ibaraki, Japan) were surgically implanted with radio-telemetry transmitters (TL10M3-D70-EEE, Data Sciences International Inc., MN, USA). EEG electrodes were screwed into the skull at the parietal area. EMG electrodes were implanted on the cervical muscles. After the surgery, each monkey was given penicillin (100,000 units/head, i.m., Meiji Seika Pharma Co., Ltd., Tokyo, Japan), buprenorphine (0.02 mg/kg, i.m., Otsuka Pharmaceutical Co., Ltd., Tokyo, Japan) and prednisolone (1 mg/kg, s.c., Kyoritsu Seiyaku Co., Ltd., Tokyo, Japan) daily for one week. After at least a 1-month recovery period in home cages, the monkeys were habituated to the recording chamber placed in a soundproof room. EEG and EMG signals were recorded using the telemetry system (Dataquest ART software, Data Sciences International Inc., MN, USA) and the signals were analyzed using SleepSign software (Kissei Comtec Co., Ltd., Nagano, Japan). After confirming long sleep in dark phase in the experimental room, we used animals to examine the wake-promoting effect of compounds.
Oral test compounds (3 or 10 mg/kg) suspended in 0.5% methylcellulose aqueous solution, or vehicle (i.e., 0.5% methylcellulose aqueous solution) was administered orally (p.o.) to monkeys at zeitgeber time 12 (ZT12) in a volume of 5 mL/kg body weight in cross-over design or pre-post design (n=1-4). EEG and EMG recordings were performed for 4 h after the compound administration. The time spent in wakefulness for 4 h after administration (% of vehicle treatment) was calculated by using SleepSign.
Parenteral test compounds (0.1 or 0.3 mg/kg) dissolved in a mixed solution comprising 5% DMSO, 5% Cremophor EL, 20% PEG400 and 70% soluplus (1% (w/v)), or vehicle (i.e., a mixed solution comprising 5% DMSO, 5% Cremophor EL, 20% PEG400 and 70% soluplus (1% (w/v))) was administered subcutaneously (s.c.) to monkeys at ZT12 in a volume of 0.5 mL/kg body weight in a pre-post design (n=1-2). EEG and EMG recordings were performed for 4 h after the compound administration. The time spent in wakefulness for 4 h after administration (% of vehicle treatment) was calculated by using SleepSign.

[1] = target: T1, human orexin type 2 receptor (Homo sapiens, UniProt O43614); experiment: Measurement of orexin type 2 receptor agonist activity (calcium indicator fluorescence, CHO cells forcibly expressing human OX2 receptor); format: cell-based; settings: compound at 3 μM; 0% = DMSO, 100% = orexin A (human) 10 nM
T1 construct: expressed in transfected cells
T1 sequence (O43614 1-444): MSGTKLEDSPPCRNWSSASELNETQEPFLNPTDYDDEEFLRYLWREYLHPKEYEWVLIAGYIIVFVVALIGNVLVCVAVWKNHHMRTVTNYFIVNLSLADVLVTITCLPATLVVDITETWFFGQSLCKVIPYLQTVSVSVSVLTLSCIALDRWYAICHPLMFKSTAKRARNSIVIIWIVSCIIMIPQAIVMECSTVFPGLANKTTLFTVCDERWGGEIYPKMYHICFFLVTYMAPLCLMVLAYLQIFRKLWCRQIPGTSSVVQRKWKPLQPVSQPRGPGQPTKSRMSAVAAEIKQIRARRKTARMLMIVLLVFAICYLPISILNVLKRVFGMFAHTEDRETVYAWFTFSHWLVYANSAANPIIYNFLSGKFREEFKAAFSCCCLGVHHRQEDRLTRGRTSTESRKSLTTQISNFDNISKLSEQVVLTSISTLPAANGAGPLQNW
In short: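 Agonist response normalised between vehicle (0%) and orexin A at 10 nM final (100%), from kinetic Fluo-4 calcium signals recorded for about 2 min after compound addition. Cells: stable human OX2R CHO clone, dye-loaded 30 min at 37 °C plus 30 min at room temperature.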

Row | Structure (SMILES) | OX2R agonist activity (3 μM, %) [1] | other results
1 | CCS(=O)(=O)N[C@@H]1[C@H](Cc2cccc(-c3cc(F)cc(F)c3)c2F)N(C(=O)C(C)(C)O)CC1(F)F [Example 3, N-{(2S,3R)-4,4-difluoro-1-(2-hydroxy-2-methylpropanoyl)-2-[(2,3′,5′-trifluoro[1,1′-biphenyl]-3-yl)methyl]pyrrolidin-3-yl}ethanesulfonamide] | 106% | response vs control in vivo at 3 mg/kg (cynomolgus monkeys; po, 3 mg/kg p.o. at ZT12): 613%
2 | Cc1cccc(-c2cccc(C[C@H]3[C@@H](NS(=O)(=O)N(C)C)C(F)(F)CN3C(=O)N3CCC3)c2F)c1 [Example 443, N′-{(2S,3R)-1-(azetidine-1-carbonyl)-4,4-difluoro-2-[(2-fluoro-3′-methyl[1,1′-biphenyl]-3-yl)methyl]pyrrolidin-3-yl}-N,N-dimethylsulfuric diamide] | 90% | response vs control in vivo at 0.1 mg/kg (cynomolgus monkeys): 532%
3 | CCS(=O)(=O)N[C@H]1[C@@H](F)CN(C(=O)N2CCC2)[C@H]1Cc1cccc(-c2cc(F)cc(F)c2)c1F [Example 450, N-{(2S,3R,4S)-1-(azetidine-1-carbonyl)-4-fluoro-2-[(2,3′,5′-trifluoro[1,1′-biphenyl]-3-yl)methyl]pyrrolidin-3-yl}ethanesulfonamide] | 86% | response vs control in vivo at 0.3 mg/kg (cynomolgus monkeys): 814%
4 | CCS(=O)(=O)N[C@H]1[C@@H](F)CN(C(=O)N2CCC2)[C@H]1Cc1cccc(-c2cccc(C)c2)c1F [Example 451, N-{(2S,3R,4S)-1-(azetidine-1-carbonyl)-4-fluoro-2-[(2-fluoro-3′-methyl[1,1′-biphenyl]-3-yl)methyl]pyrrolidin-3-yl}ethanesulfonamide] | 82% | response vs control in vivo at 0.1 mg/kg (cynomolgus monkeys): 225%
5 | Cc1cccc(-c2cccc(C[C@H]3[C@@H](NS(=O)(=O)N(C)C)[C@@H](F)CN3C(=O)N(C)C)c2F)c1 [Example 459, (2S,3R,4S)-3-[(dimethylsulfamoyl)amino]-4-fluoro-2-[(2-fluoro-3′-methyl[1,1′-biphenyl]-3-yl)methyl]-N,N-dimethylpyrrolidine-1-carboxamide] | 78% | response vs control in vivo at 0.3 mg/kg (cynomolgus monkeys): 431%
6 | Cc1cccc(-c2cccc(C[C@H]3[C@@H](NS(=O)(=O)N(C)C)C(F)(F)CN3C(=O)[C@H]3CCO3)c2F)c1F [Example 539, N′-{(2S,3R)-2-[(2,2′-difluoro-3′-methyl[1,1′-biphenyl]-3-yl)methyl]-4,4-difluoro-1-[(2R)-oxetane-2-carbonyl]pyrrolidin-3-yl}-N,N-dimethylsulfuric diamide] | 101% | 
7 | Cc1cc(F)cc(-c2cccc(C[C@H]3[C@@H](NS(=O)(=O)N(C)C)C(F)(F)CN3C(=O)[C@H]3CCO3)c2F)c1 [Example 540, N′-{(2S,3R)-2-[(2,3′-difluoro-5′-methyl[1,1′-biphenyl]-3-yl)methyl]-4,4-difluoro-1-[(2R)-oxetane-2-carbonyl]pyrrolidin-3-yl}-N,N-dimethylsulfuric diamide] | 100% | 
8 | CN(C)S(=O)(=O)N[C@@H]1[C@H](Cc2cccc(-c3cccc(F)c3)c2F)N(C(=O)[C@H]2CCO2)CC1(F)F [Example 541, N′-{(2S,3R)-2-[(2,3′-difluoro[1,1′-biphenyl]-3-yl)methyl]-4,4-difluoro-1-[(2R)-oxetane-2-carbonyl]pyrrolidin-3-yl}-N,N-dimethylsulfuric diamide] | 100% | 
9 | Cc1cccc(-c2cccc(C[C@H]3[C@@H](NS(=O)(=O)C4CC4)[C@@H](F)CN3C(=O)N3CCC3)c2F)c1 [Example 543, N-{(2S,3R,4S)-1-(azetidine-1-carbonyl)-4-fluoro-2-[(2-fluoro-3′-methyl[1,1′-biphenyl]-3-yl)methyl]pyrrolidin-3-yl}cyclopropanesulfonamide] | 99% | 
10 | O=C(N1CCC1)N1C[C@H](F)[C@H](NS(=O)(=O)C2CC2)[C@@H]1Cc1cccc(-c2cc(F)cc(F)c2)c1F [Example 544, N-{(2S,3R,4S)-1-(azetidine-1-carbonyl)-4-fluoro-2-[(2,3′,5′-trifluoro[1,1′-biphenyl]-3-yl)methyl]pyrrolidin-3-yl}cyclopropanesulfonamide] | 90% | 
11 | Cc1cccc(-c2cccc(C[C@H]3[C@@H](NS(=O)(=O)N(C)C)C(F)(F)CN3C(=O)N3CCC3)c2F)c1F [Example 545, N′-{(2S,3R)-1-(azetidine-1-carbonyl)-2-[(2,2′-difluoro-3′-methyl[1,1′-biphenyl]-3-yl)methyl]-4,4-difluoropyrrolidin-3-yl}-N,N-dimethylsulfuric diamide] | 93% | 
12 | Cc1cc(F)cc(-c2cccc(C[C@H]3[C@@H](NS(=O)(=O)N(C)C)C(F)(F)CN3C(=O)N3CCC3)c2F)c1 [Example 546, N′-{(2S,3R)-1-(azetidine-1-carbonyl)-2-[(2,3′-difluoro-5′-methyl[1,1′-biphenyl]-3-yl)methyl]-4,4-difluoropyrrolidin-3-yl}-N,N-dimethylsulfuric diamide] | 96% | 
13 | CN(C)S(=O)(=O)N[C@@H]1[C@H](Cc2cccc(-c3cccc(F)c3)c2F)N(C(=O)N2CCC2)CC1(F)F [Example 547, N′-{(2S,3R)-1-(azetidine-1-carbonyl)-2-[(2,3′-difluoro[1,1′-biphenyl]-3-yl)methyl]-4,4-difluoropyrrolidin-3-yl}-N,N-dimethylsulfuric diamide] | 98% | 
14 | CN(C)S(=O)(=O)N[C@@H]1[C@H](Cc2cccc(-c3cc(F)cc(F)c3)c2F)N(C(=O)N2CCC2)CC1(F)F [Example 548, N′-{(2S,3R)-1-(azetidine-1-carbonyl)-4,4-difluoro-2-[(2,3′,5′-trifluoro[1,1′-biphenyl]-3-yl)methyl]pyrrolidin-3-yl}-N,N-dimethylsulfuric diamide] | 94% | 
15 | CCS(=O)(=O)N[C@@H]1[C@H](Cc2cccc(-c3cccc(OC(F)F)c3)c2F)N(C(=O)C(C)C)CC1(F)F [Example 549, N-[(2S,3R)-2-{[3′-(difluoromethoxy)-2-fluoro[1,1′-biphenyl]-3-yl]methyl}-4,4-difluoro-1-(2-methylpropanoyl)pyrrolidin-3-yl]ethanesulfonamide] | 94% | 
16 | CCS(=O)(=O)N[C@@H]1[C@H](Cc2cccc(-c3cccc(OC(F)F)c3)c2F)N(C(=O)C2CC2)CC1(F)F [Example 550, N-[(2S,3R)-1-(cyclopropanecarbonyl)-2-{[3′-(difluoromethoxy)-2-fluoro[1,1′-biphenyl]-3-yl]methyl}-4,4-difluoropyrrolidin-3-yl]ethanesulfonamide] | 93% | 
17 | CCS(=O)(=O)N[C@@H]1[C@H](Cc2cccc(-c3cccc(OC(F)F)c3)c2F)N(C(=O)C23CC(C2)C3)CC1(F)F [Example 551, N-[(2S,3R)-1-(bicyclo[1.1.1]pentane-1-carbonyl)-2-{[3′-(difluoromethxoy)-2-fluoro[1,1′-biphenyl]-3-yl]methyl}-4,4-difluoropyrrolidin-3-yl]ethanesulfonamide] | 93% | 
18 | CCS(=O)(=O)N[C@@H]1[C@H](Cc2cccc(-c3cccc(OC(F)F)c3)c2F)N(C(=O)C2(O)CCC2)CC1(F)F [Example 552, N-[(2S,3R)-2-{[3′-(difluoromethoxy)-2-fluoro[1,1′-biphenyl]-3-yl]methyl}-4,4-difluoro-1-(1-hydroxycyclobutane-1-carbonyl)pyrrolidin-3-yl]ethanesulfonamide] | 94% | 
